The text below walks through data of patent US10508088B2, “Methods using HDAC11 inhibitors” (FORMA Therapeutics, Inc., priority 2016, dated 2019).

Sequence of Full length human recombinant HDAC11 (Q96DB2 whole entry): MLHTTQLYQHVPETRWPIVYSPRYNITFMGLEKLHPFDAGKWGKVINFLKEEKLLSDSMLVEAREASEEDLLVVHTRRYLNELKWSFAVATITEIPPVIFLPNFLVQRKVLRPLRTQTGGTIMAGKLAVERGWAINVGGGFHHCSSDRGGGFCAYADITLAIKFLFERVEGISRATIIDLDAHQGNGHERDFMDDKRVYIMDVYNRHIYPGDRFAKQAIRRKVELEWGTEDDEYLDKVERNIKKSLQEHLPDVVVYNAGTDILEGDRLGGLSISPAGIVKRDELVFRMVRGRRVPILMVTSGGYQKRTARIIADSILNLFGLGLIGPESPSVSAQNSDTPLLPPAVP

The first experiment deals with Full length human recombinant HDAC11 (Homo sapiens (Human), UniProt Q96DB2). As to the kind of experiment: Enzymatic HDAC11 assay, electrophoretic mobility shift. The format is biochemical. Conditions: substrate FAM-RHKK(tri-fluor-Ac)-NH2, read-out: HDAC11 IC50 Range. In a few lines:
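Baculovirus-expressed enzyme (10 nM) with 2 μM FAM-RHKK(tri-fluor-Ac)-NH2 in 100 mM HEPES pH 7.5, 25 mM KCl, 0.1% BSA, 0.01% Triton X-100, 1% DMSO at 25 °C. Substrate and product separated by microfluidic electrophoresis; inhibition from product/(substrate+product) ratio. IC50 by 4-parameter fit over 12 concentrations.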
(In general: In EMSA bound probe runs differently from free probe, usually more slowly.)
Broadly, the IC50 is the point on the concentration scale where inhibition reaches its midpoint. Take `O=C(NO)c1cccc2c1CC1(CC2)CCN(Cc2ccc(C(F)(F)F)c(F)c2)C1=O` (stereo not shown) [II-68, 1′-(3-fluoro-4-(trifluoromethyl)benzyl)-N-hydroxy-2′-oxo-3,4-dihydro-1H-spiro[naphthalene-2,3′-pyrrolidine]-8-carboxamide]: the IC50 was under 0.5 µM. Still for that read-out and setting: under `O=C(NO)c1cccc2c1CC1(CC2)CCN(Cc2ccc(Cl)cc2)C1=O` (stereo not shown) [II-69, 1′-(4-chlorobenzyl)-N-hydroxy-2′-oxo-3,4-dihydro-1H-spiro[naphthalene-2,3′-pyrrolidine]-8-carboxamide] stands over 1 µM; under `O=C(NO)c1cccc2c1CC1(CC2)CCN(Cc2ccc(C(F)(F)F)cc2)C1=O` (stereo not shown) [II-70, N-hydroxy-2′-oxo-1′-(4-(trifluoromethyl)benzyl)-3,4-dihydro-1H-spiro[naphthalene-2,3′-pyrrolidine]-8-carboxamide], 0.5 to 1 µM.

Take `O=C(NO)c1cccc2c1CC1(CC2)CCN(c2ccc(C(F)(F)F)cc2)C1=O` (stereo not shown) [II-71, N-hydroxy-2′-oxo-1′-(4-(trifluoromethyl)phenyl)-3,4-dihydro-1H-spiro[naphthalene-2,3′-pyrrolidine]-8-carboxamide]: the IC50 lay in the range of 0.5 to 1 µM. On to `O=C(NO)c1cccc2c1CC1(CC2)CCN(c2cccc(C(F)(F)F)c2)C1=O` (stereo not shown) [II-72, N-hydroxy-2′-oxo-1′-(3-(trifluoromethyl)phenyl)-3,4-dihydro-1H-spiro[naphthalene-2,3′-pyrrolidine]-8-carboxamide], for which the IC50 was over 1 µM. In the case of `O=C(NO)c1cccc2c1CC1(CC2)CCN(c2ccccc2C(F)(F)F)C1=O` (stereo not shown) [II-73, N-hydroxy-2′-oxo-1′-(2-(trifluoromethyl)phenyl)-3,4-dihydro-1H-spiro[naphthalene-2,3′-pyrrolidine]-8-carboxamide], the IC50 is over 1 µM.

As for `CN(C)C(=O)N1CCC2(CCc3cccc(C(=O)NO)c3O2)CC1` [II-74, N8-hydroxy-N1′,N1′-dimethylspiro[chromane-2,4′-piperidine]-1′,8-dicarboxamide], the IC50 is over 1 µM.

`O=C(NO)c1cccc2c1OC1(CC2)CCN(C(=O)c2ccc(F)cc2)CC1` [II-75, 1′-(4-fluorobenzoyl)-N-hydroxyspiro[chromane-2,4′-piperidine]-8-carboxamide]: the IC50 was over 1 µM. `O=C(NO)c1cccc2c1OC1(CC2)CCN(S(=O)(=O)C2CCCCC2)CC1` [II-76, 1′-(cyclohexylsulfonyl)-N-hydroxyspiro[chromane-2,4′-piperidine]-8-carboxamide]: the IC50 was over 1 µM. Consider `CC1(C(=O)N2CCC3(CCc4cccc(C(=O)NO)c4O3)CC2)CCOCC1` [II-77, N-hydroxy-1′-(4-methyltetrahydro-2H-pyran-4-carbonyl)spiro[chromane-2,4′-piperidine]-8-carboxamide], for which the IC50 was over 1 µM.

For `O=C(NO)c1cccc2c1OC1(CC2)CCN(C(=O)C2(c3cccc(C(F)(F)F)c3)CC2)CC1` [II-78, N-hydroxy-1′-(1-(3-(trifluoromethyl)phenyl)cyclopropane-1-carbonyl)spiro[chromane-2,4′-piperidine]-8-carboxamide], the IC50 is under 0.5 µM.

On to `O=C(NO)c1cccc2c1OC1(CC2)CCN(C(=O)Cc2ccccc2)CC1` [II-79, N-hydroxy-1′-(2-phenylacetyl)spiro[chromane-2,4′-piperidine]-8-carboxamide], for which the IC50 was over 1 µM.

Consider `O=C(NO)c1cccc2c1OC1(CC2)CCN(Cc2ccc(F)cc2)CC1` [II-80, 1′-(4-fluorobenzyl)-N-hydroxyspiro[chromane-2,4′-piperidine]-8-carboxamide], for which the IC50 was over 1 µM. As to `O=C(NO)c1cccc2c1OC1(CC2)CCN(C2CCCCC2)CC1` [II-81, 1′-cyclohexyl-N-hydroxyspiro[chromane-2,4′-piperidine]-8-carboxamide], the half-inhibitory concentration (IC50) is over 1 µM. The same measure, in the same setting: under `O=C(NO)c1cccc2c1OC1(CC2)CCN(c2ccc(C(F)(F)F)cn2)CC1` [II-82, N-hydroxy-1′-(5-(trifluoromethyl)pyridin-2-yl)spiro[chromane-2,4′-piperidine]-8-carboxamide] stands over 1 µM; under `Cc1ccc(N2CCC3(CCc4cccc(C(=O)NO)c4O3)CC2)cc1F` [II-83, 1′-(3-fluoro-4-methylphenyl)-N-hydroxyspiro[chromane-2,4′-piperidine]-8-carboxamide], over 1 µM; under `O=C(NO)c1cccc2c1CCC1(CCN(Cc3ccc(Cl)c(C(F)(F)F)c3)C1=O)C2` (stereo not shown) [II-84, 1′-(4-chloro-3-(trifluoromethyl)benzyl)-N-hydroxy-2′-oxo-3,4-dihydro-1H-spiro[naphthalene-2,3′-pyrrolidine]-5-carboxamide], under 0.5 µM. Consider `O=C(NO)c1cccc2c1CCC1(CCN(Cc3ccc(C(F)(F)F)cc3)C1=O)C2` (stereo not shown) [II-85, N-hydroxy-2′-oxo-1′-(4-(trifluoromethyl)benzyl)-3,4-dihydro-1H-spiro[naphthalene-2,3′-pyrrolidine]-5-carboxamide], for which the IC50 is under 0.5 µM.

On to `O=C(NO)c1cccc2c1CCC1(CCN(Cc3ccc(C(F)(F)F)c(F)c3)C1=O)C2` (stereo not shown) [II-86, 1′-(3-fluoro-4-(trifluoromethyl)benzyl)-N-hydroxy-2′-oxo-3,4-dihydro-1H-spiro[naphthalene-2,3′-pyrrolidine]-5-carboxamide], for which the IC50 is under 0.5 µM. As for `O=C(NO)c1cccc2c1CCC1(CCN(Cc3ccc(Cl)cc3)C1=O)C2` (stereo not shown) [II-87, 1′-(4-chlorobenzyl)-N-hydroxy-2′-oxo-3,4-dihydro-1H-spiro[naphthalene-2,3′-pyrrolidine]-5-carboxamide], the IC50 was over 1 µM. For the compound `O=C(NO)c1cccc2c1CCC1(CCN(c3ccc(C(F)(F)F)cc3)C1=O)C2` (stereo not shown) [II-88, N-hydroxy-2′-oxo-1′-(4-(trifluoromethyl)phenyl)-3,4-dihydro-1H-spiro[naphthalene-2,3′-pyrrolidine]-5-carboxamide], the IC50 is under 0.5 µM.

Turning to `O=C(NO)c1cccc2c1CCC1(CCN(c3cccc(C(F)(F)F)c3)C1=O)C2` (stereo not shown) [II-89, N-hydroxy-2′-oxo-1′-(3-(trifluoromethyl)phenyl)-3,4-dihydro-1H-spiro[naphthalene-2,3′-pyrrolidine]-5-carboxamide], the IC50 fell in the range of 0.5 to 1 µM. On the same count and under the same terms, as for `O=C(NO)c1cccc2c1CCC1(CCN(c3ccccc3C(F)(F)F)C1=O)C2` (stereo not shown) [II-90, N-hydroxy-2′-oxo-1′-(2-(trifluoromethyl)phenyl)-3,4-dihydro-1H-spiro[naphthalene-2,3′-pyrrolidine]-5-carboxamide], the figure is over 1 µM.

Turning to `CC(=O)N1CCC2(CCc3c(cccc3C(=O)NO)O2)CC1` [II-91, 1′-acetyl-N-hydroxyspiro[chromane-2,4′-piperidine]-5-carboxamide], the IC50 was over 1 µM.

With `O=C(NO)c1cccc2c1CCC1(CCN(c3ccccc3)CC1)O2` [II-92, N-hydroxy-1′-phenylspiro[chromane-2,4′-piperidine]-5-carboxamide], the IC50 is over 1 µM. Same read-out and setting: as for `O=C(NO)c1cccc2c1CCC1(CCN(c3ccc(F)cc3)CC1)O2` [II-93, 1′-(4-fluorophenyl)-N-hydroxyspiro[chromane-2,4′-piperidine]-5-carboxamide], the figure is over 1 µM.

In another experiment the test system is SET-2 cells. Briefly: Cell proliferation assay (CCK8). Conditions: SET-2 (FIG. 4 legend). The format is cell-based. The protocol:
(§1) This example describes inhibition of in vitro cell proliferation with exemplary HDAC11 inhibitors. The effects of selective HDAC11 inhibitors on cell proliferation were measured in cell lines containing the MPN-associated mutations MPL W515L (Ba/F3 MPL W515L) and JAK2 V617F (Ba/F3 JAK2 V617F, HEL 92.1.7, SET-2). HEL 92.1.7 and SET-2 cells were purchased from the ATCC and DSMZ, respectively. Ba/F3 cells overexpressing either MPLW515L or JAK2V617F, which were cytokine independent, were generated by transforming Ba/F3 cells with retroviruses overexpressing either MPL W515L or JAK2V617F. For survival assays, cells were seeded in 96-well plates at the density of 0.1 million/ml with addition of indicated compounds and incubated at 37° C. for 48 h. CCK8 solution (Dojindo, Rockville, Md.) was added and absorbance at 450 nm was measured after 3 hours of incubation. Readings were normalized to dimethylsulfoxide (DMSO)-treated wells.
As for `N#CC[C@H](C1CCCC1)n1cc(-c2ncnc3[nH]ccc23)cn1` [ruxolitinib, reference compound], the “growth of SET-2 cell line” value is “inhibited”.

The test system of the next experiment is HEL 92.1.7 cells. Briefly: Cell proliferation assay (CCK8). The format is cell-based. Conditions: HEL 92.1.7, 48 h. The protocol: as §1
In the case of `N#CC[C@H](C1CCCC1)n1cc(-c2ncnc3[nH]ccc23)cn1` [ruxolitinib, reference compound], the “growth of the HEL 92.1.7 cell line” value is given as “inhibited”.
